Molecules are shown by their SMILES. The source made the active and inactive calls.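 The calls were made as follows: active = compounds giving half or more protection of infected cells from virus-caused growth loss, again on retest; inactive = the rest.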 Where a SMILES comes first, the peptide text is derived from it. Where only a bound is given, the exact number is not on record here.

In this experiment the test system is CEM cells HIV-1 protection, formazan growth assay. As to the kind of experiment: NCI AIDS Antiviral Assay. The note with it: for IC50: measured here: growth of uninfected CEM cells. The method in brief: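 Human CEM cells, uninfected and HIV-1-infected, received five drug concentrations, and growth was read by soluble formazan assay. Compounds giving at least 50% protection were retested; reproducible 100% protection defined confirmed active.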

For the compound `O=C(NCCCCCCCCNC(=O)c1cc(O)c(O)c(O)c1)c1cc(O)c(O)c(O)c1`, the EC50 was over 100 µM and the IC50 was determined as 13.8 µM.
In the same order, the values of `CC1=NN(C(=O)CC(=O)Nc2ccccc2Cl)C(=O)C1N=Nc1ccc(S(=O)(=O)c2ccc(N=NC3C(=O)N(C(=O)CC(=O)Nc4ccccc4Cl)N=C3C)cc2)cc1` (stereo not drawn) are over 100 µM and over 100 µM.
For the compound `Cc1cc2oc(C)c(S(=O)(=O)NC(=O)Nc3ccc(Cl)cc3)c(=O)c2c(=O)o1`, the EC50 was over 200 µM and the IC50 is 107 µM.
The matching figures for `COc1cccc(/C=C2/S/C(=N/Nc3nc(C)c(C(C)=O)s3)NC2=O)c1O`: over 200 µM and 32.4 µM.
Regarding `COC(=O)C(C(=O)C(=O)Nc1ccccc1C#N)c1nc2ccc([N+](=O)[O-])cc2[nH]c1=O` (stereo not drawn), the EC50 is over 16.6 µM and the IC50 is over 16.6 µM.
Regarding `NNC(=O)c1ccc(OCc2nc3ccccc3[nH]2)cc1`, the EC50 was over 200 µM and the IC50 was 67.6 µM.
For `CCCCCCCCCCCC(=O)OCC(O)CO` (stereo not drawn), the EC50 is over 100 µM and the concentration for half-maximal inhibition (IC50) was 51.3 µM.
On to `CC(C)CC(NC(=O)CNC(=O)C(CC(C)C)NC(=O)C(Cc1c[nH]cn1)NC(=O)C(CC(N)=O)NC(=O)C1CCCN1C(=O)C(C)NC(=O)C(Cc1ccc(O)cc1)NC(=O)C(C)NC(=O)C1CCCN1C(=O)C(CCC(=O)O)NC(=O)C(CC(=O)O)NC(=O)C(Cc1ccccc1)NC(=O)C(CC(N)=O)NC(=O)C(C)N)C(=O)O` (stereo not drawn) (H-ANFDEPAYAPNHLGL-OH; configuration not given here), for which the EC50 is over 38 µM and the IC50 is over 38 µM.
Turning to `CN(C)C1=CC(=O)C(=O)c2cnc(N(C)C)cc21`, the result was inactive.
As to `CC1(C)OC(=O)C(=Cc2ccc3c(c2)OCO3)C(=O)O1`, the EC50 was over 129 µM and the IC50 was found to be 110 µM.
On to `CCCNC(=O)c1nc(SC)sc1NC(=O)c1ccc([N+](=O)[O-])cc1`, for which the EC50 was over 200 µM and the IC50 stood at 191 µM.
Regarding `CC(C#N)(NO)C(C)(C#N)NO` (stereo not drawn), the EC50 is over 200 µM and the IC50 is over 200 µM.
As to `c1ccc2sc(SSSc3nc4ccccc4s3)nc2c1`, the EC50 was 14.1 µM and the 50% inhibitory concentration (IC50) was 34.7 µM.
For the compound `OCCN1CSC(=S)NCCNC(=S)SC1`, the EC50 is over 63.1 µM and the IC50 is over 63.1 µM.
Turning to `COc1ccc(OC)c(N=Nc2c(O)c3ccccc3[nH]c2=O)c1`, the EC50 is 47.9 µM and the IC50 is over 200 µM.
Turning to `COc1c2occc2c(N=Cc2ccc([N+](=O)[O-])cc2)c2ccc(=O)oc12`, the EC50 is over 34.7 µM and the IC50 was over 34.7 µM.
`COC1(OC)CC2C(=O)N(Cc3ccccc3)C1C(S(=O)(=O)c1ccccc1)C2S(=O)(=O)c1ccccc1` (stereo not drawn): the outcome was inactive.
Take `CC(=O)OCC1OC(OC(C)=O)C(NC(=O)CI)C(OC(C)=O)C1OC(C)=O` (stereo not drawn): the EC50 is over 490 µM and the IC50 came out at 2.57 µM.
On to `Cc1cccc2c1C(=O)N(CC[P+](c1ccccc1)(c1ccccc1)c1ccccc1)C2=O`, for which the EC50 was over 200 µM and the IC50 stood at 7.94 µM.
As for `O=C(CCCC[P+](c1ccccc1)(c1ccccc1)c1ccccc1)c1ccccc1`, the EC50 was over 200 µM and the IC50 was found to be 0.661 µM.
As for `O=S(=O)([O-])[O-].[Fe+2].c1ccc(/C(=N\Nc2ccccn2)c2ccccn2)cc1`, the result was inactive.
With `C=CCNC(=S)/N=C/C(C(=O)Nc1ccccc1)=C(/C)O`, the EC50 was over 200 µM and the IC50 was over 200 µM.
Consider `Ic1ccc(SSc2ccc(I)cc2)cc1`, for which the EC50 is over 200 µM and the IC50 was determined as 6.61 µM.
As to `O=C1CCCCc2cccc(O)c21`, the EC50 is over 200 µM and the IC50 is over 200 µM.
For `COc1ccc(N2C(=O)C3c4[nH]c5ccccc5c4C4CCC(C(C)(C)C)CC4C3C2=O)cc1OC` (stereo not drawn), the EC50 is over 2.14 µM and the IC50 is over 2.14 µM.
For `Cc1cc(=O)c2c(o1)-c1c(cc(O)c(O)c1C(=O)O)OC2`, the EC50 is over 871 µM and the IC50 was 57.5 µM.
Take `CCN(CC)c1cc(OCc2ccccc2)cc2c1[C@H]1COc3cc(OC)ccc3[C@H]1O2`: the result was inactive.
Turning to `O=C(O)c1cc2ccccc2c(Br)c1O.O=[N+]([O-])C1CCC(O)C2[N-]CCCC21.[Cu+]`, the EC50 was over 200 µM and the IC50 is 3.39 µM.
Consider `O=S1(=O)CCN(c2ccccc2CC(c2c[nH]c3ccccc23)c2c[nH]c3ccccc23)CC1`, for which the EC50 was over 5.75 µM and the IC50 was over 5.75 µM.
For `CCCCCCCCC1=C(OC)C(=O)c2c(C)ccnc2C1=O`, the outcome was inactive.
Consider `N#CCCN(C1=NN(C(=O)CC(=O)Nc2ccccc2)C(c2ccccc2)C1)c1ccccc1Cl` (stereo not drawn), for which the EC50 is over 269 µM and the half-maximal inhibitory concentration (IC50) is over 269 µM.
Consider `O=c1c2ccccc2nc(-c2ccccc2Cl)n1NCC1(O)OCC(O)C(O)C1O` (stereo not drawn), for which the outcome was inactive.
With `COC(=O)c1noc2c1CSc1ccccc1-2`, the EC50 was over 263 µM and the concentration for half-maximal inhibition (IC50) turned out to be 123 µM.
On to `COC(=O)c1sc(C(=O)OC)c2c1CS(=O)C2`, for which the result was inactive.
On to `N#Cc1c(NC(=O)CN2CCOCC2)c(C(=O)Nc2ccccc2)n2c1CCC2`, for which the EC50 is over 200 µM and the IC50 is over 200 µM.
As for `O=C(NC(=Nc1ccccc1)SCCSC(=Nc1ccccc1)NC(=O)c1ccccc1)c1ccccc1`, the EC50 is over 18.6 µM and the IC50 is over 18.6 µM.
For the compound `CCCCCC=C(c1cc(C)c(OC)c(Br)c1)c1cc(C)c(OC)c(Br)c1`, the EC50 is over 200 µM and the IC50 was 15.5 µM.
For `Cc1ccc(C(=O)/C=C/c2ccc(Cl)c(Cl)c2)cc1`, the EC50 was over 17.8 µM and the IC50 is over 17.8 µM.
In the case of `CC(NC(=O)CNC(=O)C(N)CO)C(=O)NC(CCC(N)=O)C(=O)NC(CCC(=O)O)C(=O)NC(C)C(=O)NC(CCCCN)C(=O)NC(CCC(=O)O)C(=O)NC(CCC(N)=O)C(=O)NC(CCCN=C(N)N)C(=O)NC(C(=O)NC(CC(N)=O)C(=O)NC(C)C(=O)NC(Cc1cnc[nH]1)C(=O)NC(CO)C(=O)O)C(C)O` (stereo not drawn) (H-SGAQEAKEQRTNAHS-OH; configuration not given here), the EC50 was over 100 µM and the IC50 is over 100 µM.
On to `COC(=O)C(Cc1ccccc1)NP(=O)(O)OCC1OC(n2cc(Br)c(=O)[nH]c2=O)CC1O` (stereo not drawn), for which the EC50 is over 200 µM and the IC50 was over 200 µM.
`CC(=O)OC1CCC2(C)C(=CCC3C2CCC2(C)C3CC3N(c4ccccc4Cl)C32C#N)C1` (stereo not drawn): the EC50 was over 21.4 µM and the IC50 is over 21.4 µM.
Regarding `CCOC(=O)C(CO)(CC(CO)(C(C)=O)C(=O)OCC)C(C)=O` (stereo not drawn), the EC50 was over 200 µM and the IC50 worked out at 27.5 µM.
With `CC1OC(n2cc(F)c(=O)[nH]c2=O)C=CC1=O` (stereo not drawn), the EC50 is over 1050 µM and the IC50 came out at 14.1 µM.
For `CNc1ncnc2nc(C)c(C)nc12`, the EC50 was over 200 µM and the IC50 was over 200 µM.
Consider `CON1C(=O)C2(CCCCC2)C(=O)C12C=CC(C)CC2` (stereo not drawn), for which the EC50 is over 162 µM and the concentration for half-maximal inhibition (IC50) was over 162 µM.
For `CCC(CC)(CC(=O)O)CC(=O)O`, the outcome was inactive.
Consider `COc1ccc(C(O)C/[N+]([O-])=C/c2ncc([N+](=O)[O-])n2C)cc1` (stereo not drawn), for which the outcome was inactive.
For `C=CCN(CC=C)CC(C(C)=O)C(c1ccccc1)c1c(O)c2ccccc2oc1=O` (stereo not drawn), the EC50 was over 1.15 µM and the half-inhibitory concentration (IC50) is over 1.15 µM.
For the compound `CC(=O)OCC(=O)[C@@]1(O)CC[C@H]2[C@@H]3C[C@H](C)C4=CC(=O)C=C[C@]4(C)[C@@]3(Br)[C@@H](O)C[C@@]21C`, the outcome was inactive.
`COc1ccc2c(c1)CCC1=C2CCC(=O)C1C` (stereo not drawn) (tested in a mixture with another compound): the EC50 was over 200 µM and the half-inhibitory concentration (IC50) is 7.94 µM.
Take `CC(=O)n1cc(CC(C)O)c(=O)[nH]c1=O` (stereo not drawn): the EC50 was over 1170 µM and the IC50 is over 1170 µM.
On to `NC(CNC(=O)CBr)C(=O)O` (stereo not drawn), for which the EC50 was over 813 µM and the IC50 was found to be 155 µM.
With `O=C(OCCOC(=O)c1ccc2c(c1)C1(SCCS1)c1ccccc1-2)c1ccc2c(c1)C1(SCCS1)c1ccccc1-2`, the EC50 was over 30.2 µM and the IC50 was over 30.2 µM.
Turning to `CC(=O)O[C@H]1CC[C@H]2[C@@H]3CCC4=C/C(=N/OCCN(C)C)CC[C@]4(C)[C@H]3CC[C@]12C`, the EC50 is over 200 µM and the concentration for half-maximal inhibition (IC50) worked out at 0.955 µM.
In the same order, the values of `CCC(=O)c1cc(C(=O)C(=S)SC)cc(C(=O)C(=S)SC)c1` are 20 µM and 30.9 µM.
Consider `CCOC(=O)c1cc(/C=C/C(C)=C/C(=O)OC)oc1C`, for which the EC50 is over 67.6 µM and the half-maximal inhibitory concentration (IC50) was over 67.6 µM.
`CCCc1cc(=O)c2c(C)c3[nH]c4ccc(Cl)cc4c3c(C)c2[nH]1`: the EC50 was over 200 µM and the IC50 was 11 µM.
Turning to `COC(=O)C12CC(c3ccccc31)C1C(=O)OC(=O)C12` (stereo not drawn), the EC50 is over 132 µM and the IC50 is over 132 µM.
With `NP(=O)(OCC1=CC(=O)c2ccccc2C1=O)N(CCBr)CCBr` (stereo not drawn), the result was inactive.
Regarding `CC1(C)C=Cc2c(ccc3c(=O)c(-c4ccccc4)coc23)O1`, the EC50 was over 100 µM and the IC50 was over 100 µM.
With `CCOC(=O)/C=C/SCCC(=O)OC`, the EC50 is over 1150 µM and the IC50 was 891 µM.
Consider `O=c1[nH]c2ccccc2c2oc3ccccc3c12`, for which the EC50 was over 200 µM and the IC50 is over 200 µM.
Consider `COC1/C=C/OC2(C)Oc3c(C)c(O)c4c(O)c(c(/C=N/N5CCCN(C)CC5)c(O)c4c3C2=O)NC(=O)/C(C)=C\C=C\C(C)C(O)C(C)C(O)C(C)C(OC(C)=O)C1C` (stereo not drawn), for which the EC50 was over 200 µM and the IC50 came to 89.1 µM.
In the same order, the values of `CCOC(=O)/C(Cl)=C(\C)Nc1nc2c(ccc3ccccc32)s1` are over 100 µM and 49 µM.
Consider `Cc1nc(N)c(N=O)c(=O)[nH]1`, for which the EC50 was over 200 µM and the 50% inhibitory concentration (IC50) is over 200 µM.
As to `O=C1OCSc2ccccc21`, the EC50 is over 1070 µM and the IC50 stood at 178 µM.
For `C=CCOc1ccc(C2(O)c3ccccc3C3=NCCCN32)cc1` (stereo not drawn), the EC50 was over 200 µM and the IC50 turned out to be 148 µM.

What is called EC50 is the concentration at which the effect is half-maximal. What is called IC50 is the concentration at which inhibition is half-maximal. A low value points to greater potency in that assay.

Values taken from PubChem BioAssay AID179 (DTP/NCI, 2004).
